# Test results as given in patent US7153685B2 (The Board of Trustees of the University of Illinois, priority 2002, dated 2006).
# Experiments:
# [1] = molecular target: T1, N-79 (Homo sapiens, UniProt P03372, E203W/G400V/H216G/Q214A); assay: Autoregulated expression system (ATL8/PAL-N-79 + ATL8/PAL-LUC) in HepG2 cells; assay type: cell-based; set-up: expressed in transfected cells; host or cells: HepG2 (A20); 231 human breast cancer cells (A21); CHO-S (A22); settings: HepG2 human hepatoblastoma cells, 10 nM OHT
# T1 sequence (P03372 with tags, fused parts or gaps E203W/Q214A/H216G/G400V): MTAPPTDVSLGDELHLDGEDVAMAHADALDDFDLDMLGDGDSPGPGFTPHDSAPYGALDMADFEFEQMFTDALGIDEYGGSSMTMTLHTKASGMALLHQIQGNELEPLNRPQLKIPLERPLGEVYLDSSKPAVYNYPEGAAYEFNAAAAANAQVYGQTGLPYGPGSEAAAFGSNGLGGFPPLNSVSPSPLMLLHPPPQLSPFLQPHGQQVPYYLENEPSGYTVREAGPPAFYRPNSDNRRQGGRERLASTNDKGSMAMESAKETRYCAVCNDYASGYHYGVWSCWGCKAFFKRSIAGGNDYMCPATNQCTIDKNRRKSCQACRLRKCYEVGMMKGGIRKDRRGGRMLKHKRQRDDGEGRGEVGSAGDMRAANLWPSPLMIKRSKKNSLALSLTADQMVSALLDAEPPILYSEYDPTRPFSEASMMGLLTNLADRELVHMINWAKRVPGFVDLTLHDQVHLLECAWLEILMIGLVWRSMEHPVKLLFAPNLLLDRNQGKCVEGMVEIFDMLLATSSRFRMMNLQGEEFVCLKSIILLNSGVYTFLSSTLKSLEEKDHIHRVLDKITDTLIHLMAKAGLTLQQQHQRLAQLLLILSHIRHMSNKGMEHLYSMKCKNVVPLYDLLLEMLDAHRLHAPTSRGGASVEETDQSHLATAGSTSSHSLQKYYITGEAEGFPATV
# Description: (§1) These fragments were digested with KpnI and BamHI and then purified from agarose gels. […] To create C-129, this ER fragment was digested with XbaI and KpnI and then cloned together with the DNA fragment containing 129 amino acids of VP16 into 5.9 kb vector generated by digestion of CMV-hER with XbaI and BamHI. The same strategy was adopted to create C-79 using the DNA fragment containing 79 amino acids of VP16. Therefore, the expression of these chimeras is driven by the same CMV promoter as that of ER-3M. […] The amplified PCR product was digested with NcoI and NotI. […] This fragment and the NcoI/NotI PCR fragment were then inserted together into the 4.3 kb vector, pGL3-ATL8/PAL-LUC, which was created by digesting ATL8/PAL-LUC completely with NcoI and partially with XbaI so that the luciferase gene was replaced by N-79.
# (§2) A second plasmid also containing 8 copes of pS2 PAL drives expression of the reporter gene (FIG. 11, ATL8/PAL-LUC).
# [2] = molecular target: ER 4.3 (Homo sapiens, UniProt P03372, E203W/G215R/G400V/H216P/N217T/Q214V)
# Sequence of ER 4.3 (P03372 whole entry E203W/Q214V/G215R/H216P/N217T/G400V): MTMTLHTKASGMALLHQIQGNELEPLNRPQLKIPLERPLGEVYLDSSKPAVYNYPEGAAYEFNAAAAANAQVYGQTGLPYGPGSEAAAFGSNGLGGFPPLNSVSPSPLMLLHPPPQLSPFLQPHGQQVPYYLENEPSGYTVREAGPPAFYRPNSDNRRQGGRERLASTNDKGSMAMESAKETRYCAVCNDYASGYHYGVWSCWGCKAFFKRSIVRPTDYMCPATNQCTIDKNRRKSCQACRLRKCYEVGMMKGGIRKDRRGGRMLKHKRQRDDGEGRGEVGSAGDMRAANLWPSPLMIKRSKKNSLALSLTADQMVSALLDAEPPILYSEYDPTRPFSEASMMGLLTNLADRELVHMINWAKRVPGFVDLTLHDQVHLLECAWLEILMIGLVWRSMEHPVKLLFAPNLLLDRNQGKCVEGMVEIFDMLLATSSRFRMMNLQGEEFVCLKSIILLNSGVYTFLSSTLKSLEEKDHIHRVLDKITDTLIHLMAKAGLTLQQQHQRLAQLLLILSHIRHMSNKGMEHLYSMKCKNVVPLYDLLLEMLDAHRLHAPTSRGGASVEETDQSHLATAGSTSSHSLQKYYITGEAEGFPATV
# Description: (§3) HepG2 human hepatoma cells were maintained in a humidified 5% CO2 incubator at 37° C. in Dulbecco's Modified Eagle's Medium (DMEM; Sigma; St. Louis, Mo.) supplemented with 10 % charcoal-dextran-stripped fetal bovine serum (CD-FBS; Atlanta Biologicals, Inc; Atlanta, Ga.), 50,000 U/l of penicillin, and 50 mg/liter streptomycin (Life Technologies, Inc.). MCF-7 cells were routinely maintained in DMEM/Nutrient Mixture F-12 (DMEM/F12) supplemented with 10% heat-inactived FBS, 50,000 U/l of penicillin, and 50 mg/l streptomycin. CHO-S cells were maintained in DMEM/F12 supplemented with 10% heat-inactivated FBS (CD-FBS when ERs were being expressed) or 10% CD-new born calf serum (CD-NBCS, when reporter activity by different ligands were measured), 29.2 mg/l L-glutamine (Sigma), and 50,000 U/l of penicillin and 50 mg/l streptomycin.
# Transient transfections in HepG2 cells was accomplished using calcium phosphate co-precipitation (Ausubel et al., 1987). Briefly, cells were plated in 12-well microplates at a density of 1×10^5 cells/well. The next day, the medium was replaced, and 2–6 hours later, precipitated calcium phosphate:DNA co-crystals were added. […] Activity was determined using the dual luciferase assay protocol according to the manufacturer's directions (Promega) on a Monolight 2010 luminometer (Analytical Luminescence, San Diego, Calif.) […]
# [3] = molecular target: ER 2 (Homo sapiens, UniProt P03372, E203W/G215R/G400V/Q214A); settings: ATL2/PAL-LUC, 10 nM ligand
# Sequence of ER 2 (P03372 whole entry E203W/Q214A/G215R/G400V): as the sequence (P03372 whole entry E203W/Q214V/G215R/H216P/N217T/G400V) above, with V214A, P216H, T217N counted along it
# Description: as §3
# Transient transfections in HepG2 cells was accomplished using calcium phosphate co-precipitation (Ausubel et al., 1987). Briefly, cells were plated in 12-well microplates at a density of 1×10^5 cells/well. The next day, the medium was replaced, and 2–6 hours later, precipitated calcium phosphate:DNA co-crystals were added. […] Activity was determined using the dual luciferase assay protocol according to the manufacturer's directions (Promega) on a Monolight 2010 luminometer (Analytical Luminescence, San Diego, Calif.)
# [4] = test system: wild type ER and the ER mutants
# Description: HepG2 human hepatoma cells were maintained in a humidified 5% CO2 incubator at 37° C. in Dulbecco's Modified Eagle's Medium (DMEM; Sigma; St. Louis, Mo.) supplemented with 10 % charcoal-dextran-stripped fetal bovine serum (CD-FBS; Atlanta Biologicals, Inc; Atlanta, Ga.), 50,000 U/l of penicillin, and 50 mg/liter streptomycin (Life Technologies, Inc.). MCF-7 cells were routinely maintained in DMEM/Nutrient Mixture F-12 (DMEM/F12) supplemented with 10% heat-inactived FBS, 50,000 U/l of penicillin, and 50 mg/l streptomycin.
# Briefly, cells were plated in 12-well microplates at a density of 1×10^5 cells/well. The next day, the medium was replaced, and 2–6 hours later, precipitated calcium phosphate:DNA co-crystals were added. After 12–16 hours, the cells were shocked for 3 minutes with 20% glycerol in Tris-buffered saline, pH 7.4. Fresh medium and (if any) hormones were added. For MCF-7 and 231 cells, transient transfection was carried out using the Tfx™-20 reagent (Promega; Madison, Wis.) according to the manufacturer's direction with minor changes. Briefly, 1×10^5 cells were plated in each well of 12-well microplates one day before transfection. A 1:3 ratio of DNA to lipid was used. The DMEM/F12 medium without serum was used as carrier for the DNA-lipid mixture. After 1 hour incubation with the DNA-lipid-DMEM/F12 at 37° C., the cells were transferred to fresh DMEM/F12 supplemented with 10% CD-FBS, 50,000 U/I of penicillin, 50 mg/l streptomycin and hormones. Transfection on CHO—S cells was described as above for the preparation of ERs extraction except the medium contained 10% CD-NBCS. The cells subjected to either transfection method were harvested 48 hours post-transfection. Reporter assays were performed by lysing the cells in situ with 250 μl of passive lysis buffer (Promega).
# The data represent the mean±S.E. of three independent transfections.
# [5] = molecular target: ER3M (Homo sapiens, UniProt P03372, E203W/G400V/H216G/Q214A)
# Sequence of ER3M (P03372 whole entry E203W/Q214A/H216G/G400V): as the sequence (P03372 whole entry E203W/Q214V/G215R/H216P/N217T/G400V) above, with V214A, R215G, P216G, T217N counted along it
# [6] = molecular target: ER mutant 4.3 (Homo sapiens, UniProt P03372, E203W/G215R/G400V/H216P/N217T/Q214V); settings: 10 μM ligand
# Sequence of ER mutant 4.3 (P03372 whole entry E203W/Q214V/G215R/H216P/N217T/G400V): as the sequence (P03372 whole entry E203W/Q214V/G215R/H216P/N217T/G400V) above
# Description: HepG2 human hepatoma cells were maintained in a humidified 5% CO2 incubator at 37° C. in Dulbecco's Modified Eagle's Medium (DMEM; Sigma; St. Louis, Mo.) supplemented with 10 % charcoal-dextran-stripped fetal bovine serum (CD-FBS; Atlanta Biologicals, Inc; Atlanta, Ga.), 50,000 U/l of penicillin, and 50 mg/liter streptomycin (Life Technologies, Inc.).
# Transient transfections in HepG2 cells was accomplished using calcium phosphate co-precipitation (Ausubel et al., 1987). Briefly, cells were plated in 12-well microplates at a density of 1×10^5 cells/well. The next day, the medium was replaced, and 2–6 hours later, precipitated calcium phosphate:DNA co-crystals were added. After 12–16 hours, the cells were shocked for 3 minutes with 20% glycerol in Tris-buffered saline, pH 7.4. Fresh medium and (if any) hormones were added. For MCF-7 and 231 cells, transient transfection was carried out using the Tfx™-20 reagent (Promega; Madison, Wis.) according to the manufacturer's direction with minor changes. Briefly, 1×10^5 cells were plated in each well of 12-well microplates one day before transfection. A 1:3 ratio of DNA to lipid was used. […] Activity was determined using the dual luciferase assay protocol according to the manufacturer's directions (Promega) on a Monolight 2010 luminometer (Analytical Luminescence, San Diego, Calif.) […]
# [7] = molecular target: T2, wild type hERα (Homo sapiens, UniProt P03372, G400V); assay: Ligand-dependent luciferase reporter transactivation in transfected HepG2 cells
# T2 sequence (P03372 1-595 G400V): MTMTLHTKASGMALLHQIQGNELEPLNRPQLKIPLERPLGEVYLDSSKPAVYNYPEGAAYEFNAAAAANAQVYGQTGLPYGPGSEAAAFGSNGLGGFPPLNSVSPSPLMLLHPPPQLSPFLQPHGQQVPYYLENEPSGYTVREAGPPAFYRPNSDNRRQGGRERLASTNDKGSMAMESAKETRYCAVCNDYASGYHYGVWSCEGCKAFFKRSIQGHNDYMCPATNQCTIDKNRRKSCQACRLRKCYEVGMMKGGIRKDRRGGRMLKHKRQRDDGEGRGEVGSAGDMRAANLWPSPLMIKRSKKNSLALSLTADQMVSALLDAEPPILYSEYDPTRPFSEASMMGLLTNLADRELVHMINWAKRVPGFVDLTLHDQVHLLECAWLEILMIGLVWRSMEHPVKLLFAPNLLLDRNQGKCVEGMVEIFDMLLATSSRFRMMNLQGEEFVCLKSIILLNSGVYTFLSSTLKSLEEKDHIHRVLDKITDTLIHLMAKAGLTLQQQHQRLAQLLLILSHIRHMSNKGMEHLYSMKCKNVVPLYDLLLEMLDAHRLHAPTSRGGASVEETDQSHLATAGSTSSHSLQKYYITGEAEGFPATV
# Description: as §3
# Transient transfections in HepG2 cells was accomplished using calcium phosphate co-precipitation (Ausubel et al., 1987). Briefly, cells were plated in 12-well microplates at a density of 1×10^5 cells/well. The next day, the medium was replaced, and 2–6 hours later, precipitated calcium phosphate:DNA co-crystals were added. After 12–16 hours, the cells were shocked for 3 minutes with 20% glycerol in Tris-buffered saline, pH 7.4. Fresh medium and (if any) hormones were added. For MCF-7 and 231 cells, transient transfection was carried out using the Tfx™-20 reagent (Promega; Madison, Wis.) according to the manufacturer's direction with minor changes. Briefly, 1×10^5 cells were plated in each well of 12-well microplates one day before transfection. A 1:3 ratio of DNA to lipid was used. The DMEM/F12 medium without serum was used as carrier for the DNA-lipid mixture. After 1 hour incubation with the DNA-lipid-DMEM/F12 at 37° C., the cells were transferred to fresh DMEM/F12 supplemented with 10% CD-FBS, 50,000 U/I of penicillin, 50 mg/l streptomycin and hormones. Transfection on CHO—S cells was described as above for the preparation of ERs extraction except the medium contained 10% CD-NBCS. The cells subjected to either transfection method were harvested 48 hours post-transfection. Reporter assays were performed by lysing the cells in situ with 250 μl of passive lysis buffer (Promega). Activity was determined using the dual luciferase assay protocol according to the manufacturer's directions (Promega) on a Monolight 2010 luminometer (Analytical Luminescence, San Diego, Calif.)
# Transient transfections of HepG2 cells were carried out and luciferase activity determined.
# [8] = molecular target: T1, N-79; settings: CHO-S cells, 10 nM OHT
# Description: as §1, §2
# [9] = molecular target: T1, N-79; assay: Autoregulated expression system (ATL8/PAL-N-79 + ATL8/PAL-LUC) in 231 human breast cancer cells; assay type: cell-based; set-up: expressed in transfected cells; host or cells: HepG2 (A20); 231 human breast cancer cells (A21); CHO-S (A22); settings: 10 nM OHT
# Description: as §1, §2
# [10] = test system: mutant and chimeric estrogen receptors
# [11] = ATL8/PAL-LUC, 2.5 ng expression plasmid, 10 nM OHT
compound,measurement,setting,value
4-hydroxytamoxifen [OHT],increase in luciferase activity upon addition of OHT,[1],1027 fold
same,transactivation by OHT compared with MOX,"[2]; ATL2/PAL-LUC, 10 nM ligand",equal to that seen with MOX
same,increase in reporter gene expression by OHT,[2]; [11],172 fold
same,transactivation by OHT compared with MOX,[3],equal to that seen with MOX
same,agonist character of OHT when pS2 PAL supplied the ERE,"[4]; ATL2/PAL-LUC, 10 nM ligand, ER mutants",full agonist
same,"transactivation in response to OHT, percent of that seen with MOX","[4]; ATL2/pS2 ERE-LUC, 10 nM ligand",about 30%
same,OHT transactivation with four copies of pS2 PAL compared with MOX,"[4]; ATL4/PAL-LUC, 10 nM ligand",same level of transactivation as MOX
same,"OHT activity, percent of that seen with MOX","[4]; ATL4/cERE-LUC, wild type hERα and ERs 3M and 4.3, 10 nM ligand",20–25%
same,OHT-mediated activation of transcription on different versions of pS2 PAL reporters,"[4]; summary, pS2 PAL reporters and the ER mutants",70–1000 fold
same,transactivation by OHT compared with MOX,"[5]; ATL2/PAL-LUC, 10 nM ligand",exceeded that seen with MOX
same,increase in reporter gene expression by OHT,[5]; [11],117 fold
same,maximal level of transactivation,"[5]; ATL8/PAL-LUC, tamoxifen compared with OHT",similar
same,"transactivation by OHT, percent of that seen with E2",[6]; ATL4/PAL-LUC,45%
same,"OHT-mediated transactivation, percent of that observed with estradiol (E2)",[6]; ATL4/cERE-LUC,13%
same,"agonism on ATL8/cERE-LUC, OHT compared with moxestrol",[7]; 10 nM ligand,weaker agonist than moxestrol
same,"transactivation of ATL8/PAL-LUC, OHT compared with MOX",[7]; 10 nM ligand,higher with OHT than with MOX
same,transactivation level on two copies of pS2 PAL,"[7]; ATL2/PAL-LUC, 10 nM ligand",undetectable
same,agonist activity when bound to the cERE,"[7]; ATL2/cERE-LUC, 10 nM OHT",weak agonist activity
same,induction of luciferase activity from ATL8/PAL,"[7]; ATL8/PAL-LUC, 5 ng expression plasmid, 10 nM OHT",52 fold
same,induction upon addition of OHT,[8],28 fold
same,increase in luciferase activity upon addition of OHT,[9],813 fold
O=C(c1ccc(OCCN2CCCCC2)cc1)c1c(-c2ccc(O)cc2)sc2cc(O)ccc12 [Raloxifene],transcription activation when bound to mutant and chimeric estrogen receptors,[10],fail to activate transcription
